# Test results as given in ChEMBL document CHEMBL3046826, “Triosephosphate isomerases in Italian ryegrass ( Lolium multiflorum ): characterization and susceptibility to herbicides” (J Agric Food Chem, 2009).
# Experiments:
# [1] = target: Triosephosphate isomerase, chloroplastic (Secale cereale) (UniProt P46225); assay: Inhibition of desalted triosephosphate isomerase in Lolium multiflorum (Italian rye grass) shoot assessed as transformation of GAP to DHAP applied at concentration of 20.0 mg/flat measured per mg protein after 48 hr by coupled enzyme assay (reference value: 9.80 +/-0.43 nmol/sec)
# [2] = target: Triosephosphate isomerase, chloroplastic (Secale cereale) (UniProt P46225); assay: Inhibition of desalted triosephosphate isomerase in Lolium multiflorum (Italian ryegrass) shoot assessed as transformation of GAP to DHAP applied at concentration of 1.80 mg/flat measured per mg protein after 48 hr by coupled enzyme assay (reference value: 9.80 +/-0.43 nmol/sec)
# [3] = target: Triosephosphate isomerase, chloroplastic (Secale cereale) (UniProt P46225); assay: Inhibition of desalted triosephosphate isomerase in Lolium multiflorum (Italian ryegrass) shoot assessed as decrease in transformation of GAP to DHAP applied at concentration of 14.4 mg/flat measured after 48 hr by coupled enzyme assay
# [4] = target: Triosephosphate isomerase, chloroplastic (Secale cereale) (UniProt P46225); assay: Inhibition of desalted triosephosphate isomerase in Lolium multiflorum (Italian ryegrass) shoot assessed as transformation of GAP to DHAP applied at concentration of 14.4 mg/flat measured per mg protein after 48 hr by coupled enzyme assay (reference value: 9.80 +/-0.43 nmol/sec)
# [5] = target: Triosephosphate isomerase, chloroplastic (Secale cereale) (UniProt P46225); assay: Inhibition of desalted triosephosphate isomerase in Lolium multiflorum (Italian rye grass) shoot assessed as transformation of GAP to DHAP applied at concentration of 4.43 mg/flat measured per mg protein after 48 hr by coupled enzyme assay (reference value: 9.80 +/-0.43 nmol/sec)
# Chain of Triosephosphate isomerase, chloroplastic (Secale cereale) (P46225 whole entry): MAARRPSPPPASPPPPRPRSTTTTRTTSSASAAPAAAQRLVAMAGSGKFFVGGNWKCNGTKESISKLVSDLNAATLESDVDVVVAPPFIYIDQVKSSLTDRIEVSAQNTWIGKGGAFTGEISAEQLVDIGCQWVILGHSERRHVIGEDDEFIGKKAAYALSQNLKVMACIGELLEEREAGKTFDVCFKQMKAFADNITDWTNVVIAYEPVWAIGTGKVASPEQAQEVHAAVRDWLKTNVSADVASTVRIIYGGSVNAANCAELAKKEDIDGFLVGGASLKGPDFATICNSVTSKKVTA
structure (smiles),measurement,setting,value
CCc1cccc(C)c1N(C(=O)CCl)C(C)COC (configuration not stated),Activity,[1],9.57 nmol/s
CCOC(=O)C(C)Oc1ccc(Oc2nc3ccc(Cl)cc3o2)cc1 (configuration not stated),Activity,[2],9.3 nmol/s
O=[N+]([O-])c1ccc(Oc2ccc(C(F)(F)F)cc2[N+](=O)[O-])cc1,inhibition,[3],35.9%
same,Activity,[4],6.28 nmol/s
CCOC(=O)c1nc(C(Cl)(Cl)Cl)n(-c2ccc(Cl)cc2Cl)n1,Activity,[5],10.2 nmol/s
CCNc1nc(Cl)nc(NC(C)C)n1,inhibition,[3],26.5%
same,Activity,[4],7.2 nmol/s
